Measured values from US20240366649A1, “4-ETHYNYL-3-HYDROXY-TETRAHYDROFURANYL-ADENINE PHOSPHORAMIDATES AND RELATED COMPOUNDS AND THEIR USE IN TREATING MEDICAL CONDITIONS” (ROME THERAPEUTICS, INC., priority 2021, published 2024).

Columns and labels:
Assay type in all cases: cell-based
[1] = tested on: Ovarian cancer OVCAR-8 cells; experiment: Cancer cell viability assay with 3D cell colonies (CellTiter-Glo), OVCAR-8; conditions: Homo sapiens, 168 h; OVCAR-8, 3D methylcellulose colonies, 7 days
Description: (§1) Cancer cell lines were cultured in the following media: • Ovarian cancer OVCAR-8 cells—RPMI media containing 10% FBS • Ovarian cancer SK-OV-3 cells—McCoy's 5a media containing 10% FBS • Ovarian cancer SW756 cells—L-15 (100% air)+10% FBS • Esophageal cancer TE-1 cells—RPMI-1640+10% FBS • Esophageal cancer KYSE-410 cells—RPMI-1640+5˜10% FBS • Esophageal cancer KYSE-70 cells—RPMI-1640+10% h.i.FBS. • Pharyngeal cancer FaDu cells—MEM+0.01 mM NEAA+10% FBS
(§2) Cell colony formation was tested using a 3D methylcellulose-based CellTiter-Glo (CTG) viability assay (Cat. No: G7573, Promega). Briefly, cells were inoculated into 96-well plates (at 1,500 cells per well) into a solution of 0.65% methylcellulose in growth media and incubated overnight at 37° C. in 5% CO2. The next day, serially diluted test compound (islatravir, 4′-ethynyl-2-fluoro-2′-deoxyadenosine) or positive control (cisplatin, Cat. No. 6J015A89, Qilu Pharma) were added at the indicated concentrations, and the cells were incubated for 7 days. On day seven, 100 μL of CTG reagent was added, and the plates were incubated at room temperature for 20 min. Luminescence was read on an Envision Multi Label Reader according to manufacturer's instructions. IC50 values were determined using the following calculation: […]

[2] = tested on: Ovarian cancer SK-OV-3 cells; experiment: Cancer cell viability assay with 3D cell colonies (CellTiter-Glo), SK-OV-3; conditions: Homo sapiens, 168 h; SK-OV-3, 3D methylcellulose colonies, 7 days
Description: as §1, §2

[3] = tested on: IFN-β production in PBMCs; experiment: Decitabine-stimulated human PBMC assay; conditions: anti-CD3/anti-CD28, 10 μM decitabine, 5 days
Description: EasySep buffer (32 mL, Stem Cell, cat. #20144) was used to dilute 8 mL of LRSC buffy coat (from fresh Leukopak) with gentle mixing. The diluted buffy coat (20 mL) was transferred into each of two SepMate 50 tubes, and the tubes were filled with 15 mL of Lyphoprep (Stem Cell, ct. #07851) density gradient. The SepMate tubes were then centrifuged at 1200G for 10 minutes at room temperature with the brake on. The top layer of supernatant was collected in SepMate tubes by quickly pouring it into a new 50 mL conical tube. The PBMCs were washed with EasySep buffer ×2 by centrifuging at 300G for 5 minutes. The cells were resuspended in 30 mL of EasySep and centrifuged at 100G for 5 minutes with the brake off, and the platelets were removed. The cells were then resuspended in 6 mL of 1×RBC lysis buffer (InvitroGen) and incubated at 37° C. for 5 minutes. Then, 25 mL of EasySep buffer was mixed into the tube and it was centrifuged at 300G for 5 minutes. The cells were resuspended in 10 mL of EasySep buffer and the cells were then counted with Cellometer (AO/PI). The PBMCs were resuspended in RPMI1640 (ThermoFisher)+10% FBS (HyClone)+p/s at 3×10^6/mL. The PBMCs (100 μL, 300 k PBMCs) were then seeded in a 96-well flat bottom microplate (Corning) that had been precoated with 100 μL of anti-CD3 antibody (10 μg/mL in PBS, Biolegend) or PBS at 4° C., one day before the assay was commenced. […]

[4] = tested on: IFN production in THP1 TREX1 KO cells; experiment: Cellular assay for altering IFN production in THP1 TREX1 KO cells; conditions: FIG. 6-8, % induction versus compound concentration
Description: THP1-Dual™ KO-TREX1 cells were purchased from Invivogen (cat #thpd-kotrex). The THP1-Dual™ KO-TREX1 cells were cultured in RPMI 1640, 10% heat-inactivated fetal bovine serum, 25 mM HEPES, 10 μg/mL Blasticidin, and […] Zeocin. THP1-Dual™ KO-TREX cells were treated with a dose titration of test compound in the presence of 1 μM 5-aza-2′-deoxycytidine (Sigma, cat #189825). Type 1 Interferon and cell viability were assessed after five days of treatment.
Stock solution of test compound was prepared in DMSO followed by a three-fold dilution in DMSO. Additional 50× dilution was prepared in cell culture media for each dilution. 10 μL of diluted test compound was then added to a 384-well plate.
THP1-Dual™ KO-TREX1 cells were treated with 1 μM 5-aza-2′-deoxycytidine. THP1-Dual™ KO-TREX1 cells (50 μL) were added to each well of the 384-well plate containing test compound titration at 10,000 cells/well. Cells were incubated at 37° C., 5% CO2 in a humidified incubator for five days. On day five, 20 μL of cell supernatant was transferred to a 384-well, white-walled plate, followed by addition to each well of 50 μL of QUANTI-LUC solution containing stabilizer. Luminescence was detected on a plate reader according to manufacturer's instructions.
For certain compounds, the assay was run in a 96-well format, with the following modifications: • 190 μL, instead of 50 μL, of cells were added to each well, to provide 50,000 cells/well, instead of 10,000 cells/well, • Cells were incubated for 6 days, instead of 5 days, • 25 μL, instead of 20 μL, of cell supernatant was added to the white-walled plate for QUANT-LUC treatment; and • 25 μL, instead of 30 μL, of CellTiter-Glo was added to assess cell viability.
Percent inhibition of interferon was calculated using the following analysis: (Average DMSO-Sample)/(Average DMSO-Average 30 μM control reagent)*100. The control reagent for inhibition of interferon was a specific nucleoside reverse-transcriptase inhibitor with molecular weight <600 a.m.u. Percent induction of interferon was calculated using the following analysis: (Sample-Average DMSO)/(10 μM control reagent-Average DMSO)*100. The control reagent for induction of interferon was compound 8 (4′-ethynyl-2-chloro-2′-deoxyadenosine).

[5] = tested on: Esophageal cancer KYSE-70 cells; experiment: Cancer cell viability assay with 3D cell colonies (CellTiter-Glo), KYSE-70; conditions: Homo sapiens, 168 h; KYSE-70, 3D methylcellulose colonies, 7 days
Description: as §1, §2

IC50 [1]: ≤ 10 µM | IC50 [2]: ≤ 10 µM | IC50 [5]: 10 to 30 µM
SMILES: C#C[C@]1(CO)O[C@@H](n2cnc3c(N)nc(F)nc32)C[C@@H]1O [islatravir, 4′-ethynyl-2-fluoro-2′-deoxyadenosine]
production of IFN-β [3]: activated production of IFN-β | change in IFN levels (figure) [4]: induction of IFN
